For one data set, the system named is TMD8 cells. Nature of the data set: Cell washout cytotoxicity assay. Particulars: TMD‐8 cells; 100 nmol/L.
The subject of the next data set is mutant BTK (C481S). Particulars: cited from earlier work.
For the next data set, the system named is arthritis. Conditions: cited from earlier work.
A further data set relates to IL‐6. Particulars: read-out: IC50 for IL‐6 inhibition; in‐vitro assays; cited from earlier work.
The subject of the next data set is U2932 cell line. Particulars: cited from earlier work.

“Also recorded” adds a separate entry of the source.

One may read the IC50 as the point on the concentration scale where inhibition reaches its midpoint.

On to `Cc1nc(Nc2ncc(C(=O)Nc3c(C)cccc3Cl)s2)cc(N2CCN(CCO)CC2)n1` [dasatinib], for which the “cytotoxic effect after drug wash‐off” value in the data set on TMD8 cells was “failed to exert its effect when washed off; also recorded: completely lost its cytotoxic potential”.

On to `CC#CC(=O)N1CC[C@@H](n2c(=O)n(-c3ccc(Oc4ccccc4)cc3)c3c(N)ncnc32)C1` [ONO/GS‐4050], for which, in the data set on mutant BTK (C481S), the “activity for the mutant BTK” value is on record as “appreciable activity”.

For `C=CC(=O)N1CCC[C@@H](n2nc(-c3ccc(Oc4ccccc4)cc3)c3c(N)ncnc32)C1` [ibrutinib], the “ED50 anti‐arthritic activity” value in the data set with arthritis is recorded as 2.6 mg/kg/day. Moreover, the IC50 in the data set with IL‐6 was 3.9 nM; with mutant BTK (C481S) (read-out: IC50 mutant BTK, C481S), 1000 nM. The “sensitivity of U2932 cell line to cytotoxicity” value in the data set on U2932 cell line is listed as “resistant”.

In the case of `CC#CC(=O)N1CCC[C@H]1c1nc(-c2ccc(C(=O)Nc3ccccn3)cc2)c2c(N)nccn12` [ACP‐196], in the data set with mutant BTK (C481S), the “activity for the mutant BTK” value was “appreciable activity”.

Source of the values: PMC7424564 (Pharmacology Research & Perspectives, 2020).
